According to patent US9594084B2, “Phosphorylation of histones and uses thereof” (H. LEE MOFFITT CANCER CENTER AND RESEARCH INSTITUTE, priority 2012, dated 2017):

Key:
WEE1 = WEE1 (Homo sapiens, UniProt P30291); assay: pTyr37-H2B immunoprecipitation/immunoblot in synchronized H1975 cells; assay type: cell-based; design: endogenous in cells; host or cells: H1975; conditions: 6.30 hours post-release, 0.3 μM
Experimental: FIG. 13A is an immunoblot showing lysates from synchronized MEFs immunoprecipitated with pTyr37-H2B antibodies followed by immunoblotting with pTyr37-H2B antibody (top panel) or H2B antibody (bottom panel). FIG. 13B is an immunoblot showing cell lysates 6.30 hours post-release from H1975 cells synchronized by double thymidine alone (first column) or with 0.31 μM (second column), 0.62 μM (third column) and 1.25 μM (fourth column) MK1775 WEE1 inhibitor that were immunoprecipitated with pTyr37-H2B antibodies followed by immunoblotting with pTyr37-H2B, H2B, pTyr15-Cdc2, or Cdc2 antibodies. FIG. 13C is an immunoblot showing lysates collected at 0 and 6.30 hours post-release from synchronized MEFs transfected with control (first two columns) or WEE1 (last two columns) siRNAs that were immunoprecipitated with pTyr37-H2B antibodies followed by immunoblotting with pTyr37-H2B (top panel), H2B (second panel), WEE1 (third panel), or PTyr15-Cdc2 (bottom panel) antibodies. FIG. 13D is an immunoblot showing equimolar amounts of purified WEE1 (last three columns) and H2B (first three columns) proteins incubated in the presence (third column) or absence of WEE1 inhibitor (MK1775, 0.625 μM) for 1 hour at 30° C. and immunoblotted with pTyr37-H2B (top panel), H2B (middle panel), and WEE1 (bottom panel) antibodies. […]

[1] = system: cancers and cancer cell lines; conditions: cited from earlier work
5-hmC levels = assay: Slot blot of genomic DNA with 5-hmC and 5-mC antibodies; assay type: cell-based
Experimental: SBC12, T98G and HEK293 cells were treated with WEE1 inhibitor, MK1775 (0.6 μM, 24 hr). Blots were incubated with 5-hmC and 5-mC antibodies.
Genomic DNA was isolated, blotted by slot blot, followed by immunoblotting with 5-hmC and 5-mC antibodies. […] 5-hmC containing plasmid DNA (Zymo research) was used as positive control.

Chain of WEE1 (P30291 whole entry): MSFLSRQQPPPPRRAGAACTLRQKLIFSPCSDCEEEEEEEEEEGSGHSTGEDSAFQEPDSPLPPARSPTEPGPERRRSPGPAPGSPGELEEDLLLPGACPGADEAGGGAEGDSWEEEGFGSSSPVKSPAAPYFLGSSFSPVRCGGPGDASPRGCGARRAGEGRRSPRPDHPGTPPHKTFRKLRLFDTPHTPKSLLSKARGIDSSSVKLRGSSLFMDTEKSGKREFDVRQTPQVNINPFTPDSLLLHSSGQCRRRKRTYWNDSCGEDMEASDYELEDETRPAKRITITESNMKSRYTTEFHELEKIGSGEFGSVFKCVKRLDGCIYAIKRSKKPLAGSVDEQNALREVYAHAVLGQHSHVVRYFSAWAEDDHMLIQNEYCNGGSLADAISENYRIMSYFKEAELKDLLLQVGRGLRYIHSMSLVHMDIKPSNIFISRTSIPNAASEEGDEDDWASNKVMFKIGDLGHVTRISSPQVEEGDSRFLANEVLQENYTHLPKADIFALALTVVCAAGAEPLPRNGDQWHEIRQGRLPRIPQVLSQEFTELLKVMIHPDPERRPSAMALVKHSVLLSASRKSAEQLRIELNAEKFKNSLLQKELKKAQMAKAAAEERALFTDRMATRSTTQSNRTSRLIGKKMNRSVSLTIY

Q: Which “pTyr37-phosphorylation of H2B” value (WEE1) does the source give for C=CCn1c(=O)c2cnc(Nc3ccc(N4CCN(C)CC4)cc3)nc2n1-c1cccc(C(C)(C)O)n1 [MK-1775] here?
A: Its value is “complete loss”.

Q: What about the “sensitization to DNA damaging agents such as gemcitabine, 5-fluorouracil” value [1] of the same compound?
A: Its value is “able to sensitize”.

Q: And the 5-hmC levels (5-hmC levels; HEK293 cells, 0.6 μM, 24 hr)?
A: The 5-hmC levels was “remained unchanged”.

Q: What about the 5-hmC levels (5-hmC levels; SBC12 melanoma derived cell line, 0.6 μM, 24 hr) of the same compound?
A: Its 5-hmC levels is “significant upregulation”.

Q: And the 5-hmC levels (5-hmC levels; T98G GBM-derived cells, 0.6 μM, 24 hr)?
A: The 5-hmC levels was “significant upregulation”.

Q: And the 5-mC levels (5-hmC levels; immunoblotting with 5-mC antibodies, 0.6 μM, 24 hr)?
A: Its 5-mC levels is “concomitant decrease”.

Q: And the 5-hmC levels (5-hmC levels; summary statement)?
A: Its 5-hmC levels is “restored”.
